Assay [1] can be described thus: inhibitors of HIV Env-driven cell fusion, dose response, cherry-pick (AID 652057). The class given is functional, cell-based.
Assay [2] is described as follows: off-target signal loss in HeLa-CEM21 co-culture – HeLa F-luc CTL cells, cherry-picked, counter-screen for HIV-1 Env fusion inhibitor project, dose response (AID 652040).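 Also: potency for signal decrease marking cytotoxic or nonspecific inhibition.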 The format is functional, cell-based.
Assay [3] in a line: inhibitors of clade B AD8 Env fusion, dose response, cell-based, cherry-pick (AID 652062).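 Also: luciferase signal from cell-cell fusion driven by HIV-1 clade B AD8 Env; potency is for inhibitors of fusion seen as a drop in luminescence.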 The format is functional.
Assay [4] in a line: CEM21 lymphoblast cell cytotoxicity, dose response, cytotoxicity control for viral fusion inhibitor project, CellTiter-Glo luminescence, cherry-picked (AID 652042).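 Also: potency for signal decrease meaning cytotoxicity.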 The class given is functional, cell-based.
Assay [5] addresses DNA dC->dU-editing enzyme APOBEC-3G (Homo sapiens, UniProt Q9HC16). The class given is functional.
For assay [6], the target named is DNA dC->dU-editing enzyme APOBEC-3A (Homo sapiens, UniProt P31941). Description: Dose Response confirmation of small molecule APOBEC3A DNA Deaminase Inhibitors via a fluorescence-based single-stranded DNA deaminase assay. [Related pubchem assays (depositor defined):AID493011, AID493024]. The class given is functional.
Sequence of DNA dC->dU-editing enzyme APOBEC-3A (P31941 whole entry): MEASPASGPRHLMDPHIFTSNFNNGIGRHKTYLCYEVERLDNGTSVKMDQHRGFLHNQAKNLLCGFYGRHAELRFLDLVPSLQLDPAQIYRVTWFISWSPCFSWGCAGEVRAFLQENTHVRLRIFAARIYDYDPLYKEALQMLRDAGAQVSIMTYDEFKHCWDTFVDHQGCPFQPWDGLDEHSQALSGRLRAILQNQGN
For assay [7], the target named is SWI/SNF-related matrix-associated actin-dependent regulator of chromatin subfamily A member 2 (Homo sapiens, UniProt P51531). The experiment in a line: Luminescence-based cell-based high throughput dose response assay to identify activators of the function of SWI/SNF related, matrix associated, actin dependent regulator of chromatin, subfamily a, member 2 (SMARCA2, BRM). The format is functional.
Sequence of SWI/SNF-related matrix-associated actin-dependent regulator of chromatin subfamily A member 2 (P51531 whole entry): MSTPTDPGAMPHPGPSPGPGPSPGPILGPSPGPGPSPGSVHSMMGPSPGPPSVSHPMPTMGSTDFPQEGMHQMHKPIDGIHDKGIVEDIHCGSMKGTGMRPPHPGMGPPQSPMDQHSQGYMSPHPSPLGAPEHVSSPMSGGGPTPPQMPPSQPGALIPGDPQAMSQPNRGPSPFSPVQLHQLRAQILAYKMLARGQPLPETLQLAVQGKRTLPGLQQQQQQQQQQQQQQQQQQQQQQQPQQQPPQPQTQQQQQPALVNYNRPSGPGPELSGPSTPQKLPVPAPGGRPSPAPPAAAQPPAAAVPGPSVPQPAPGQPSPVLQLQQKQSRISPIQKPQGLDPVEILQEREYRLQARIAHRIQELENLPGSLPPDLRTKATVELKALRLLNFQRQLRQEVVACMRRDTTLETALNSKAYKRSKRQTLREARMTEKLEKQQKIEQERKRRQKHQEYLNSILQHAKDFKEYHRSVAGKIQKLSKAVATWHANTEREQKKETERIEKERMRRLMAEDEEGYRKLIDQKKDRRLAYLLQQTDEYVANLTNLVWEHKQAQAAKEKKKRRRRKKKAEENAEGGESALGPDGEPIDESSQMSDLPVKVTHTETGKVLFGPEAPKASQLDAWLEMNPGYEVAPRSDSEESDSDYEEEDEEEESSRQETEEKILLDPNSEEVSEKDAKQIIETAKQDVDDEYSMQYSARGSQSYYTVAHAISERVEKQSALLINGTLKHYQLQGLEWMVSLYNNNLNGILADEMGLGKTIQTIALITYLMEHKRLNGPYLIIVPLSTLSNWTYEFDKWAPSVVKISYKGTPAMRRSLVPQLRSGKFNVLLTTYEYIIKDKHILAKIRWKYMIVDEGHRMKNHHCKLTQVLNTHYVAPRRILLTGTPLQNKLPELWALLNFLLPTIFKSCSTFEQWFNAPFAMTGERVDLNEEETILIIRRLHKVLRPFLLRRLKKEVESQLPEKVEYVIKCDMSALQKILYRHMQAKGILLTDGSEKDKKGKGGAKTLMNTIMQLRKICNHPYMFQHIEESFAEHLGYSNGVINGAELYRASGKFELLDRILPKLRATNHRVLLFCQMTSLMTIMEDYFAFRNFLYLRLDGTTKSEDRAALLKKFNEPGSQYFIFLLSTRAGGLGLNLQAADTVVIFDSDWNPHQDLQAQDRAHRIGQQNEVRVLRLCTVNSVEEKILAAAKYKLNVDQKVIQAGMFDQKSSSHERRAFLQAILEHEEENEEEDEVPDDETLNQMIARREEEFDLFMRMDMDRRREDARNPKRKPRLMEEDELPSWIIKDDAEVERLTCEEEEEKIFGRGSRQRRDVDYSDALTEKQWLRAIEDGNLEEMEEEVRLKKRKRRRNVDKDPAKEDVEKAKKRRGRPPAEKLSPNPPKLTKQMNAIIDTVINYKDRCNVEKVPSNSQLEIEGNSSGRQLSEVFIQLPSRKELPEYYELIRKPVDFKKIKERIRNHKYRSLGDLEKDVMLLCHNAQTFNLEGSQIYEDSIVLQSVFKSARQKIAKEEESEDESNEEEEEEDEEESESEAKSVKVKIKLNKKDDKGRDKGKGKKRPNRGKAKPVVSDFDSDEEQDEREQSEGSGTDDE

Assay [8] can be described thus: Counterscreen for activators of the function of SWI/SNF related, matrix associated, actin dependent regulator of chromatin, subfamily a, member 2 (SMARCA2, BRM): Luminescence-based cell-based high throughput dose response assay to identify non-selective compounds using the VP16 reporter assay. The format is functional.
The target in assay [9] is T1, DNA repair protein RAD52 homolog (Homo sapiens, UniProt P43351).
T1 sequence (P43351 whole entry): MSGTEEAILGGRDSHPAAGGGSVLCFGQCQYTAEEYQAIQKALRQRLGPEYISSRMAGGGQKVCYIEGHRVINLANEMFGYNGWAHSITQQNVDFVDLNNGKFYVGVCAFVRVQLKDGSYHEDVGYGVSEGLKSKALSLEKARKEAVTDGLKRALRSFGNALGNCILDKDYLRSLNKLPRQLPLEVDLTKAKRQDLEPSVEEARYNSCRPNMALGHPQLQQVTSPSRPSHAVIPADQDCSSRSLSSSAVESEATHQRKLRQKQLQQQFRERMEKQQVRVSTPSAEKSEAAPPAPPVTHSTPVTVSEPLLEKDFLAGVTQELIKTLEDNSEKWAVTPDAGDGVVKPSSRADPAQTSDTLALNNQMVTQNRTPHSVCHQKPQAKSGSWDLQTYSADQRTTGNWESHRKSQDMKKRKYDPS
The format is functional, biochemical.

In assay [10] the target is Induced myeloid leukemia cell differentiation protein Mcl-1 (Homo sapiens, UniProt Q07820). The class given is functional.
Sequence of Induced myeloid leukemia cell differentiation protein Mcl-1 (Q07820 whole entry): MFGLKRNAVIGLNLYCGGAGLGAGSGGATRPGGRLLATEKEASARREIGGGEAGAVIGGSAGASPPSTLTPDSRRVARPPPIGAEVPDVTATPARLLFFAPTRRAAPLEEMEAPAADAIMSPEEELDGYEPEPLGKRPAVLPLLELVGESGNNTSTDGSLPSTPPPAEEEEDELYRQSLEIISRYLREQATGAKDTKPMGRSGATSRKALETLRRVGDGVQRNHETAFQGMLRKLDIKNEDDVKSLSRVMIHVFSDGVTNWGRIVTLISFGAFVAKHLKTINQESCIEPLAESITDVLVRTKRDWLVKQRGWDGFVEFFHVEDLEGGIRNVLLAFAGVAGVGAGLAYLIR
Assay [11] can be described thus: cells. The format is functional, cell-based.
Assay [12] concerns the target T2, Trace amine-associated receptor 1 (Homo sapiens, UniProt Q96RJ0).
T2 sequence (Q96RJ0 whole entry): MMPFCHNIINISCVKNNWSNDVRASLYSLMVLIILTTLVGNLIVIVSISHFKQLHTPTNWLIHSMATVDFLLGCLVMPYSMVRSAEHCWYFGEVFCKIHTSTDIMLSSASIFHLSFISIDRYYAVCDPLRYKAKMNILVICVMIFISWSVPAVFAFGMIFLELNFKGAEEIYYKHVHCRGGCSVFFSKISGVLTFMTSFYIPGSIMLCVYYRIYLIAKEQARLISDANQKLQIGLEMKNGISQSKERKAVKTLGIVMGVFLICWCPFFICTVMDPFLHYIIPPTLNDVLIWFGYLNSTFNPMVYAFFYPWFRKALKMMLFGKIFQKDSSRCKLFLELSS
Description: Counterscreen for agonists of the human trace amine associated receptor 1 (hTAAR1): Fluorescence-based cell-based high throughput dose response assay to identify hTAAR1 agonist that also desensitize TAAR1 receptor response. The format is functional.

The target of assay [13] is T2, Trace amine-associated receptor 1. The experiment in a line: Fluorescence-based cell-based high throughput dose response assay to identify agonists of the human trace amine associated receptor 1 (TAAR1). The class given is functional.
A short description of assay [14]: cells. The class given is functional, cell-based. The source holds these as a separate data set.
Assay [15] is described as follows: P. falciparum Dd2 growth inhibitors, dose response, SYBR Green, cherry-picked samples (AID 1159567). The format is functional, cell-based.
A short description of assay [16]: P. falciparum Dd2 growth inhibitors, dose response, SYBR Green, dry powder samples (AID 1159566).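 Also: potency for growth inhibition with lower SYBR green DNA signal.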 The class given is functional, cell-based.
A short description of assay [17]: HepG2 cell cytotoxicity, dose response, cytotoxicity control, plate reader, dry powder samples (AID 1159569).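 Also: inhibitor potency with signal falling toward the positive control level.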 The format is functional, cell-based.
A short description of assay [18]: P. falciparum ATP4 D1247Y mutant growth inhibitors, dose response, NITD609-resistant line, SYBR Green, dry powder (AID 1159571).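 Also: parasites synchronized at ring stage by sorbitol before testing.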 The format is functional, cell-based.
Assay [19] in a line: HepG2 cell cytotoxicity, dose response, cytotoxicity control, cherry-picked samples (AID 1159577). The format is functional, cell-based.
A short description of assay [20]: P. falciparum 3D7-ScDHODH growth inhibitors, dose response, SYBR Green, dry powder samples (AID 1159570).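 Also: parasite growth measured after 72 hours of compound exposure.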 The class given is functional, cell-based.

Calls of active or inactive are those of the source. A value given as a limit tells only on which side of the number the result lay.

Sequence of DNA dC->dU-editing enzyme APOBEC-3G (Q9HC16 whole entry): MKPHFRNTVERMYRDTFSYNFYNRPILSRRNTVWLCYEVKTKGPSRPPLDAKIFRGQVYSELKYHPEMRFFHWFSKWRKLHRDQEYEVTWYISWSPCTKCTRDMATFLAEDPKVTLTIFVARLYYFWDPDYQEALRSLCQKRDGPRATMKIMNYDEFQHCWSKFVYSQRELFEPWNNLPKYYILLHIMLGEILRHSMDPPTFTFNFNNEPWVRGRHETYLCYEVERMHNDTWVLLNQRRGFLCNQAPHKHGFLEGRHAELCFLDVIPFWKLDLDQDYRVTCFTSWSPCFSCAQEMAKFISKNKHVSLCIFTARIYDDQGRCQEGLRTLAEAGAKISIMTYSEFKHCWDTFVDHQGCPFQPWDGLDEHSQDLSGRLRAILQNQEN

`Cc1ccc(C)c(CNc2ccc(S(=O)(=O)N3CCCCC3)cc2)c1`: the concentration at half-maximal activity (AC50) in assay [1] was 50.5 µM (active); in assay [2], < 0.26 µM (active); in assay [3], 2.31 µM (active); in [4] it was 63.8 µM (active).
With `C[N+]1(C)[C@@H]2CC[C@H]1C[C@@H](OC(=O)C(CO)c1ccccc1)C2` (stereo partly drawn), the IC50 in assay [5] was 3.18 µM (active); in assay [6], 2.23 µM (active).
Regarding `O=C1CNC(=S)N1c1nc2ccccc2s1`, the EC50 in assay [7] and in [8] was > 91.2 µM (inactive) throughout.
For `O=C(c1ccc(Cn2c(=S)[nH]c3ccc(N4CCOCC4)cc3c2=O)cc1)N1CCC(N2CCCCC2)CC1`, the AC50 in [9] was 13.9 µM (active).
Take `O=C1SC(SCc2ccccc2Cl)=N/C1=C\c1ccc(C(=O)O)cc1`: the half-inhibitory concentration (IC50) in assay [10] was 5.02 µM (active).
With `OCCNc1nc(Nc2cccc(O)c2)nc2ccccc12`, the IC50 is > 29.9 µM (inactive) in “cells [11]” and 0.261 µM (active) in assay [12]. Further, the EC50 in assay [13] was 0.0786 µM (active); in “cells [14]”, > 29.9 µM (inactive).
As to `CCOC(=O)[C@]12CCCC=C1N(Cc1ccc3c(c1)OCO3)C(=O)[C@H](CC(=O)NCCc1ccccc1OC)C2`, the IC50 in the assay “cells [11]” is > 29.9 µM (inactive); in assay [12], 5.85 µM (active). Besides, the EC50 in assay [13] is 4.06 µM (active); in “cells [14]” it was > 29.9 µM (inactive).
Consider `COc1ccc2c3c([nH]c2c1)[C@@H](CO)N(Cc1ccncc1)CC31CCN(Cc2ccc(-c3ccccn3)cc2)CC1`, for which the AC50 in assay [15] was 0.546 µM (active); in assay [16], 0.613 µM (active); in assay [17], 21.2 µM (active); in assay [18], 0.623 µM (active); in assay [19] it was > 39 µM (inactive); in assay [20], 0.649 µM (active).
As to `CCC(=O)N1[C@H](CO)[C@H](c2ccc(C3=CCCCC3)cc2)[C@H]1CNC1CCCC1`, the values for the AC50 in [15] and in [19] were 4.7 µM (active) and > 42 µM (inactive), respectively.
As for `C=CCn1c(NC(=O)c2ccc(C)cc2)c(C#N)sc1=N`, the results for the IC50 in assay [5] and in assay [6] were 4.44 µM (active) and 3.47 µM (active), respectively.
Take `Cc1ccccc1S(=O)(=O)N1[C@H](C#N)[C@@H](c2ccc(C#CC3CCCCC3)cc2)[C@@H]1CO`: the AC50 was 6.83 µM (active) in [15] and > 39 µM (inactive) in [19].
In the same order, the values of `Cc1ccc(-c2ccc([C@H]3[C@@H](CO)N4CCCCN(S(=O)(=O)c5cccc(C)c5)C[C@H]34)cc2)cc1` are 1.31 µM (active) and 9.89 µM (active).
For the compound `N=C(N)N/N=C/c1c(Cl)cccc1Cl` [GUANABENZ], the values for the IC50 (in the assay “cells [11]”; in assay [12]) were > 29.9 µM (inactive) and 1.17 µM (active), respectively. Further, the results for the EC50 (in [13]; in the assay “cells [14]”) were > 3.33 µM (active) and > 29.9 µM (inactive), respectively.
`CCn1c(SCC(=O)N2CCN(c3ccc(Cl)cc3)CC2)nc2ccccc2c1=O`: the results for the IC50 in assay [5] and in assay [6] were 2.57 µM (active) and 2.83 µM (active), respectively.

These data come from ChEMBL document CHEMBL1201862, “PubChem BioAssay data set” (2004).
